Reference: patent US20240251792A1, “WEED CONTROL METHOD” (SYNGENTA CROP PROTECTION AG, priority 2021, published 2024)
Like-named read-outs stand apart in the source and are kept apart here.

What was measured:
Type in all cases: in vivo
AMAPA = assay: Pre-emergence biological efficacy (Table 3); conditions: 312 h, 1000 g/ha, after 13 days, read-out: evaluation (100=total damage to plant; 0=no damage to plant)
Summary of the method: (§1)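 Seeds were sown in standard soil in pots, kept one day in a glasshouse (24/19 °C day/night, 16 h light), then sprayed with an aqueous dilution in 0.2% Genapol X080 of a 50 g/l stock in acetone/AMA emulsifier mix. Damage was scored visually after 13 days (0 = none, 100 = total).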

IPOHE = assay: Pre-emergence biological efficacy (Table 3); conditions: Ipomoea hederacea, 312 h, 1000 g/ha, after 13 days, read-out: evaluation (100=total damage to plant; 0=no damage to plant)
Summary of the method: as §1

ECHCG = assay: Pre-emergence biological efficacy (Table 3); conditions: Echinochloa crus-galli, 312 h, 1000 g/ha, after 13 days, read-out: evaluation (100=total damage to plant; 0=no damage to plant)
Summary of the method: as §1

SETFA = assay: Pre-emergence biological efficacy (Table 3); conditions: Setaria faberi, 312 h, 1000 g/ha, after 13 days, read-out: evaluation (100=total damage to plant; 0=no damage to plant)
Summary of the method: as §1

AMARE = assay: Pre-emergence biological efficacy (Table 3); conditions: Amaranthus retroflexus, 312 h, 1000 g/ha, after 13 days, read-out: evaluation (100=total damage to plant; 0=no damage to plant)
Summary of the method: as §1

ZEAMX = assay: Pre-emergence biological efficacy (Table 3); conditions: 312 h, 1000 g/ha, after 13 days, read-out: evaluation (100=total damage to plant; 0=no damage to plant)
Summary of the method: as §1

weeds and/or crops = assay: Post-emergence biological efficacy (Table 4); conditions: 312 h, 1000 g/ha, evaluated after 13 days
Summary of the method: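 Weeds and crops were grown 14 days in a glasshouse, then sprayed post-emergence with compound formulated in acetone/F50 and diluted in 0.2% Genapol X080 to the final dose. Damage was scored after 13 days on a 0–100 scale, where 100 is total damage.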

[1] = AMAPA, read-out: damage to plant AMAPA (100=total damage; 0=no damage)
[2] = ZEAMX, read-out: damage to plant ZEAMX (100=total damage; 0=no damage)
[3] = Amaranthus retroflexus, AMARE, read-out: damage to plant AMARE (100=total damage; 0=no damage)
[4] = Echinochloa crus-galli, ECHCG, read-out: damage to plant ECHCG (100=total damage; 0=no damage)
[5] = Ipomoea hederacea, IPOHE, read-out: damage to plant IPOHE (100=total damage; 0=no damage)
[6] = Setaria faberi, SETFA, read-out: damage to plant SETFA (100=total damage; 0=no damage)

Structure (SMILES)	pest or weed control at 1000 g/ha (AMAPA) [%]	pest or weed control at 1000 g/ha (IPOHE) [%]	pest or weed control at 1000 g/ha (ECHCG) [%]	pest or weed control at 1000 g/ha (SETFA) [%]	pest or weed control at 1000 g/ha (AMARE) [%]	plant injury at 1000 g/ha (ZEAMX) [%]	pest or weed control at 1000 g/ha (weeds and/or crops; [1]) [%]	pest or weed control at 1000 g/ha (weeds and/or crops; [2]) [%]	pest or weed control at 1000 g/ha (weeds and/or crops; [3]) [%]	pest or weed control at 1000 g/ha (weeds and/or crops; [4]) [%]	pest or weed control at 1000 g/ha (weeds and/or crops; [5]) [%]	pest or weed control at 1000 g/ha (weeds and/or crops; [6]) [%]
O=C(O)C(F)(F)c1cccc2c1CCO2 [Compound 1-420, 2-(2,3-Dihydrobenzofuran-4-yl)-2,2-difluoro-acetic acid]	60	70	0	0	80	10	70	10	80	10	70	10
O=C(O)C(F)(F)c1cccc(Cl)c1C1CC1 [Compound 1-428, 2-(3-Chloro-2-cyclopropyl-phenyl)-2,2-difluoro-acetic acid]	90	80	0	0	80	0	90	10	90	10	90	0
COC(=O)c1c(Cl)cccc1C(F)(F)C(=O)O [Compound 1-444, 2-(3-Chloro-2-methoxycarbonyl-phenyl)-2,2-difluoro-acetic acid]	60	50	0	0	40	0	60	10	70	10	50	20
O=C(O)C(F)(F)c1cccc(Cl)c1OC(F)F [Compound 1-452, 2-[3-Chloro-2-(difluoromethoxy)phenyl]-2,2-difluoro-acetic acid]	50	70	10	30	50	30	80	40	80	50	70	50
COc1c(F)ccc(C(F)(F)C(=O)O)c1F [Compound 1-458, 2-(2,4-Difluoro-3-methoxy-phenyl)-2,2-difluoro-acetic acid]	90	80	0	0	90	20	90	40	90	90	70	90
O=C(O)C(F)(F)c1cccc(OC(F)F)c1Cl [Compound 1-459, 2-[2-Chloro-3-(difluoromethoxy)phenyl]-2,2-difluoro-acetic acid]	80	90	50	100	70	0	80	20	80	40	90	60
